The subject of test [1] is binding sites on vascular smooth muscle cells. Put plainly: 125I-ANVP binding and displacement on cultured vascular wall cells. Set-up: species or system bovine. Conditions: unlabelled competitor; vascular smooth muscle cells (Table III).
Description: Therefore, cells of vascular wall origin, e.g. bovine aortic smooth muscle and endothelial cells, were used to determine binding of ANVP compounds to specific receptors and associated cyclic GMP increases were measured.
Binding assays were performed as follows: ANVPs were labelled with ^1251 according to the procedure of Schenk, et al., J. Biol. Chem., 259:14941-14951 (1984). This procedure utilizes glucose oxidase and lactoperoxidase mediated oxidations to transfer ^1251 to the tyrosine on the ANVP molecule. ^1251-ANVP was then added to 10 mm confluent cultures of vascular wall cells and incubated at 37 °C.
Thus, the displacement of ^1251-ANVP binding by ANVPs and analogs as a function of concentration is a reflection of their potency to bind to the vascular wall and alter the contractile state of the vessel.
A further test deals with isolated adrenal cells. The test is described as follows: angiotensin-stimulated aldosterone production by isolated adrenal cells. It counts as cell-based. The text has this: (§1) Thus, ANVPs are able to block the effects of the renin-angiotensin system at several levels: (1) they antagonize the direct actions of angiotensin on its target organs (blood vessels and the adrenal); and (2) inhibit renin secretion, which leads to a reduced rate of angiotensin formation in the blood.

The test system of the next test is anesthetized dogs. The test is described as follows: renal and hemodynamic effects of constant infusion in anesthetized dogs. It counts as in vivo. Conditions: 1 µg/kg bolus, followed by 0.1 µg/kg/min for 1 hour. How it is done:
Renal and hemodynamic effects have also been measured in anesthetized dogs receiving a constant infusion of the compound rANVP(126-149) (1 µg/kg bolus, followed by 0.1 µg/kg/min for 1 hour). Immediate effects were noted on blood pressure, GFR and urine flow rate and electrolyte excretion which were sustained throughout the infusion. The "experimental" data presented for these parameters in Table IV are the average values obtained during the infusion. […] All these parameters returned to control (i.e. pre-infusion) levels during the recovery period (i.e. following termination of the infusion).
as §1

The next test concerns intact rat. Put plainly: natriuresis after bolus injection in the intact anesthetized rat. It counts as in vivo. Conditions: Inactin anesthetized rats on constant saline infusion. How it is done:
Synthetic ANVP compounds rANVP(126-149), rANVP(126-150) and hANVP(127-151) were also found to be natriuretic in the intact rat. These compounds were administered as a bolus injection to Inactin anesthetized rats (100 mg/kg, average weight 399 g) which were maintained on a constant infusion of normal saline at 2.2 ml/hr. […] Data are expressed as mean ± SE.

Test [2] concerns cultured bovine aortic smooth muscle cells. Put plainly: cyclic GMP accumulation in cultured aortic smooth muscle cells. It counts as cell-based. Conditions: dose-response, % of maximal cyclic GMP increase (Figure 11A). The text has this: (§2) Since the agonistic action of ANVP in vascular smooth muscle not only results from binding to specific receptors, but is also associated with increases in cyclic GMP, the effects of ANVPs and analogs on cyclic GMP accumulation were examined using the same cultured cells. […] In Figure 11A & B, the relative activities of ANVP and analogs on cyclic GMP accumulation in aortic smooth muscle and endothelial cells are shown. The data is plotted in a dose-response relationship (log dose vs % of maximal cyclic GMP increases).

For test [3], the system named is cultured bovine aortic endothelial cells. The test is described as follows: cyclic GMP accumulation in cultured aortic endothelial cells. Type of test: cell-based. Conditions: dose-response, % of maximal cyclic GMP increase (Figure 11B).
Description: as §2

The test system of another test is isolated rat kidney. Put plainly: isolated perfused rat kidney. How it is done:
The activity of rANVP(126-149) was measured in the isolated rat kidney. Functioning isolated rat kidneys were perfused in a closed-circuit system, as described in Camargo, M.J.F. et al. Am.J.Physiol., 246:F447-F456 (1984). After control clearance periods, 0.1 to 1.0 µg of the compound was added to the perfusate. The effects on multiple parameters were noted. These peak values are expressed in Table I as the experimental data. It is clear that rANVP(126-149) caused urine flow rate, urinary sodium excretion, filtration fraction and glomerular filtration rate to increase.
Isolated rat kidneys were treated as described in Table I. Control periods for each compound are denoted by C and experimental periods following the addition of compounds are denoted by E. V-urine flow rate UNaV-urinary sodium excretion rate, GFR-glomerular filtration rate. Data represent the mean of 3-8 experiments.
Samples of the above expressed material were also tested for natriuretic and diuretic activity using the isolated perfused rat kidney model as described by Camargo, M. et al., Am. J. Physiol. 246:F447-F456-(1984). As shown in Table VIII material synthesized and secreted by yeast cultures containing YEp-a-NF-5 and purified as described above through the SP-Sephadex step increased urinary Na^+ excretion approximately 3-fold and urinary volume 2-fold as examined during repeated test periods of 10 minutes each. […] No significant increase occurred in urinary Na^+ excretion, urinary volume, glomerular filtration or renal resistance when the same experiment was performed on material synthesized and secreted by yeast cultures containing the reverse orientation control plasmid YEp-a-NF-7 and purified through SP-Sephadex@.

[4] abbreviates: 0.1 to 1.0 µg added to the perfusate after control clearance periods, peak values.
Setting [5] is: 0.1 to 1.0 µg added to the perfusate, perfused in the absence of vasoconstrictors.

Positions of bridges follow the written chain, without caps; N, C: chain ends. Residues, ends and D or L forms follow the SMILES beside them.

For angiotensin, the “displacement of 125I-ANVP binding” value in test [1] is given as “not by a variety of hormones”.

Regarding `CC[C@H](C)[C@@H]1NC(=O)[C@H](CCCNC(=N)N)NC(=O)[C@H](CC(=O)O)NC(=O)[C@H]([C@@H](C)CC)NC(=O)[C@H](CCCNC(=N)N)NC(=O)CNC(=O)CNC(=O)[C@H](Cc2ccccc2)NC(=O)[C@@H](NC(=O)[C@H](CO)NC(=O)[C@H](CO)NC(=O)[C@@H](N)CCCNC(=N)N)CSSC[C@@H](C(=O)N[C@@H](CC(N)=O)C(=O)N[C@@H](CO)C(=O)N[C@@H](Cc2ccccc2)C(=O)N[C@@H](CCCNC(=N)N)C(=O)O)NC(=O)CNC(=O)[C@H](CC(C)C)NC(=O)CNC(=O)[C@H](CO)NC(=O)[C@H](CCC(N)=O)NC(=O)[C@H](C)NC(=O)CNC1=O` [rANVP(126-149), rANVP (126-149)] (H-RSSCFGGRIDRIGAQSGLGCNSFR-OH; disulfide 4-20), the “ability of angiotensin to stimulate aldosterone production” value in the test on isolated adrenal cells is “inhibits”. In the test on anesthetized dogs, the GFR rose is listed as 25-35%; the “Mean arterial pressure (MAP) fell” value is 10-15%; the diuresis and natriuresis result is “sustained diuresis and natriuresis”; the “plasma aldosterone (PA)” value is “significant decreases”. Further, the “plasma renin activity (PRA)” value in the test with anesthetized dogs was “significant decreases”. In the test with intact rat, the “natriuretic in the intact rat” value is “natriuretic”. Further, the “rank order of potency, cyclic GMP accumulation” value (shortened to “rank order of potency”) in test [2] was “> rANVP(127-150) = other D amino acid substitutions”. Also, in test [3], the “rank order of potency” value is reported as “> rANVP(127-150) = other D amino acid substitutions”. For the same compound, in the test on isolated rat kidney (setting [4]), the urinary sodium excretion result was “increase” and the urine flow rate result is on record as “increase”. Besides, in the test on isolated rat kidney (setting [5]), the filtration fraction result is “increase” and the glomerular filtration rate entry is “increase”.

Take glucagon: the “displacement of 125I-ANVP binding” value in test [1] was “not by a variety of hormones”.

Turning to `CC[C@H](C)[C@@H]1NC(=O)[C@H](CCCNC(=N)N)NC(=O)[C@H](CC(=O)O)NC(=O)[C@H]([C@@H](C)CC)NC(=O)[C@H](CCCNC(=N)N)NC(=O)CNC(=O)[C@@H](C)NC(=O)[C@H](Cc2ccccc2)NC(=O)[C@@H](NC(=O)[C@H](CO)NC(=O)[C@H](CO)NC(=O)[C@@H](N)CCCNC(=N)N)CSSC[C@@H](C(=O)N[C@@H](CC(N)=O)C(=O)N[C@@H](CO)C(=O)N[C@@H](Cc2ccccc2)C(=O)N[C@@H](CCCNC(=N)N)C(=O)N[C@@H](Cc2ccc(O)cc2)C(=O)O)NC(=O)CNC(=O)[C@H](CC(C)C)NC(=O)CNC(=O)[C@H](CO)NC(=O)[C@H](CCC(N)=O)NC(=O)[C@H](C)NC(=O)CNC1=O` [[D-Ala^131]rANVP(126-150)], the “rank order of potency” value in test [2] and in test [3] was “> rANVP(127-150) = other D amino acid substitutions” throughout.

Regarding `CC[C@H](C)[C@@H]1NC(=O)[C@H](CCCNC(=N)N)NC(=O)[C@H](CC(=O)O)NC(=O)[C@H]([C@@H](C)CC)NC(=O)[C@H](CCCNC(=N)N)NC(=O)CNC(=O)CNC(=O)[C@H](Cc2ccccc2)NC(=O)[C@@H](NC(=O)[C@H](CO)NC(=O)[C@H](CO)NC(=O)[C@@H](N)CCCNC(=N)N)CSSC[C@@H](C(=O)N[C@@H](CC(N)=O)C(=O)N[C@@H](CO)C(=O)N[C@@H](Cc2ccccc2)C(=O)N[C@@H](CCCNC(=N)N)C(=O)N[C@@H](Cc2ccc(O)cc2)C(=O)O)NC(=O)CNC(=O)[C@H](CC(C)C)NC(=O)[C@@H](C)NC(=O)[C@H](CO)NC(=O)[C@H](CCC(N)=O)NC(=O)[C@H](C)NC(=O)CNC1=O` [[D-Ala^142]rANVP(126-150), [D-Ala'^42]rANVP(126-150)], the “displacement of 125I-ANVP binding” value in test [1] is on record as “most reactive”. Also, the “rank order of potency” value in test [2] and in test [3] was “> rANVP(127-150) = other D amino acid substitutions” in each case.

vasopressin: the “displacement of 125I-ANVP binding” value in test [1] is recorded as “not by a variety of hormones”.

The values above are taken from patent publication EP0180615B1, “NOVEL ATRIAL NATRIURETIC/VASODILATOR POLYPEPTIDES” (priority 1984, dated 1995).
